In patent publication US20170101407A1, “6-CHLORINE-SUBSTITUTED IMIDAZO[1,2-A]PYRIDINE CARBOXAMIDES AND THE USE THEREOF AS SOLUBLE GUANYLATE CYCLASE STIMULATORS” (Bayer Pharma Aktiengesellschaft, priority 2014, published 2017):

Test system: recombinant guanylate cyclase reporter cell line
Assay: Effect on a recombinant guanylate cyclase reporter cell line
Assay type: cell-based
Conditions: in some cases mean values for individual determinations
Description: B-2. Effect on a Recombinant Guanvlate Cyclase Reporter Cell Line
The cellular activity of the compounds according to the invention is determined using a recombinant guanylate cyclase reporter cell line, as described in F. Wunder et al., Anal. Biochem. 339, 104-112 (2005).
Representative MEC values (MEC=minimum effective concentration) for the compounds of the invention are shown in the table below (in some cases as mean values for individual determinations): […]

Row | Structure (SMILES) | MEC (minimum effective concentration) [µM]
1 | Cc1nc2c(OCc3c(F)cccc3F)cc(Cl)cn2c1C(=O)NCC(C)(N)CCF (racemic) [Example 7, rac-N-(2-Amino-4-fluoro-2-methylbutyl)-6-chloro-8-[(2,6-difluorobenzyl)oxy]-2-methylimidazo[1,2-a]pyridine-3-carboxamide (racemate)] | 0.1
2 | Cc1nc2c(OCc3c(F)cccc3F)cc(Cl)cn2c1C(=O)NCC(C)(N)CCCF (single isomer, unassigned; enantiomer a) [Example 3, ent-N-(2-Amino-5-fluoro-2-methylpentyl)-6-chloro-8-[(2,6-difluorobenzyl)oxy]-2-methylimidazo[1,2-a]pyridine-3-carboxamide (enantiomer A)] | 0.1
3 | Cc1nc2c(OCc3c(F)cccc3F)cc(Cl)cn2c1C(=O)NCC(C)(N)CC(F)F (single isomer, unassigned; enantiomer a) [Example 5, ent-N-(2-Amino-4,4-difluoro-2-methylbutyl)-6-chloro-8-[(2,6-difluorobenzyl)oxy]-2-methylimidazo[1,2-a]pyridine-3-carboxamide (enantiomer A)] | 0.3
4 | Cc1nc2c(OCc3c(F)cccc3F)cc(Cl)cn2c1C(=O)NCC(C)(N)CCF (single isomer, unassigned; enantiomer a) [Example 8, ent-N-(2-Amino-4-fluoro-2-methylbutyl)-6-chloro-8-[(2,6-difluorobenzyl)oxy]-2-methylimidazo[1,2-a]pyridine-3-carboxamide (enantiomer A)] | 0.1
5 | Cc1nc2c(OCc3c(F)cccc3F)cc(Cl)cn2c1C(=O)NCC(C)(N)CF (single isomer, unassigned; enantiomer b) [Example 1, ent-N-(2-Amino-3-fluoro-2-methylpropyl)-6-chloro-8-[(2,6-difluorobenzyl)oxy]-2-methylimidazo[1,2-a]pyridine-3-carboxamide (enantiomer B)] | 0.3
6 | Cc1nc2c(OCc3c(F)cccc3F)cc(Cl)cn2c1C(=O)NCC(C)(N)CCC(F)(F)F (single isomer, unassigned; enantiomer b) [Example 2, ent-N-(2-Amino-5,5,5-trifluoro-2-methylpentyl)-6-chloro-8-[(2,6-difluorobenzyl)oxy]-2-methylimidazo[1,2-a]pyridine-3-carboxamide (enantiomer B)] | 0.3
7 | Cc1nc2c(OCc3c(F)cccc3F)cc(Cl)cn2c1C(=O)NCC(C)(N)CCCF (single isomer, unassigned; enantiomer b) [Example 4, ent-N-(2-Amino-5-fluoro-2-methylpentyl)-6-chloro-8-[(2,6-difluorobenzyl)oxy]-2-methylimidazo[1,2-a]pyridine-3-carboxamide (enantiomer B)] | 0.1
8 | Cc1nc2c(OCc3c(F)cccc3F)cc(Cl)cn2c1C(=O)NCC(C)(N)CC(F)F (single isomer, unassigned; enantiomer b) [Example 6, ent-N-(2-Amino-4,4-difluoro-2-methylbutyl)-6-chloro-8-[(2,6-difluorobenzyl)oxy]-2-methylimidazo[1,2-a]pyridine-3-carboxamide (enantiomer B)] | 0.3
9 | Cc1nc2c(OCc3c(F)cccc3F)cc(Cl)cn2c1C(=O)NCC(C)(N)CCF (single isomer, unassigned; enantiomer b) [Example 9, ent-N-(2-Amino-4-fluoro-2-methylbutyl)-6-chloro-8-[(2,6-difluorobenzyl)oxy]-2-methylimidazo[1,2-a]pyridine-3-carboxamide (enantiomer B)] | 0.1
